Test results: patent US20150004636A1, “NEURONAL BIOSENSOR FOR DETECTION OF TOXINS” (priority 2011, published 2015)
Like-named read-outs stand apart in the source and are kept apart here.

Key:
Assay type in all cases: cell-based, chick
DRG neurons [1] = test system: DRG neurons
Experimental: For microscopy experiments, holes were drilled in the bottom of 35 mm tissue culture dishes with a 7/32″ drill bit and drill press. Etching was performed on 12 mm round glass coverslips that were submerged in 300 ml of boiling 18 MΩ H2O containing 7.5 g Alconox detergent for 30 minutes. The coverslips were then rinsed with 18MΩ H2O and dried in a 150 mm Petri dish in a laminar flow hood. A section of Tygon tubing (0.5 inch long, 0.5 inch inner diameter, and 0.75 inch outer diameter) was used to apply Dow Corning 732 multi-purpose sealant to the bottom of the tissue culture dishes just around the hole that was drilled previously. Forceps were used to press one round glass coverslip to the bottom of each tissue culture dish until a continuous seal was formed around the hole. The tissue culture dishes were laid in a fume hood to dry. Exposure to ultraviolet light for at least an hour or treatment with ethanol for approximately 30 seconds was used to sterilize the dishes. Type VII collagen, to promote cell adhesion to the glass coverslip, was added to each dish for coating and allowed to air dry in the laminar flow hood to maintain sterility. Once the dishes were dry, the lids were placed back on the dishes and the edges of the Petri dishes were then wrapped in Parafilm and stored in a 4° C. refrigerator before use.
Focusing on the FM® dye, the dye was thawed at room temperature and vortexed. A 30 μM FM® dye solution was made with 1×HBSS. The solution was heated to 37° C. and vortexed just before each cell staining experiment. The cells were exposed to the FM® dye solution for 5-10 min before imaging.
The media was removed from the 35 mm tissue culture dish using a micropipette. The surface was then rinsed once with 1 ml HBSS. […]
DRG neurons stained with FM® 4-64 were imaged before exposure to 100 μM ionomycin. […] Over the 10 min of imaging, the samples were moving out of focus and the focus was readjusted intermittently for more consistent images. […]

[2] = test system: dorsal root ganglia (DRG) neurons
Experimental: The eggs were incubated for 10 days before dissection in a dark egg incubator with motion at a dry temperature of 86-100° F. and wet temperature of 84-86° F. From the ventral side, the spines of the embryos were exposed, the kidneys were removed one at a time under higher dissecting power carefully so as not to remove the nerve chains situated just below the kidney along the ventral side of the spinal cord. The DRGs were each dissected from the area between the bottom of the ribs and the posterior end of the embryo, placed in a tissue culture dish containing F12 media. DRGs from 12 embryos were transferred with a fire-polished Louis Pasteur pipette to a sterile 15 ml tube. After the DRGs settled to the bottom of the tube, a pipette was used to carefully remove the F12 media, avoiding removal of any DRGs. Ten mLs of 5% trypsin were added to the tube with DRGs, mixed, and incubated for 30 minutes in a 37° C. water bath. Every 10 minutes of incubation the tube was removed from the water bath and tapped to mix the DRGs and allow the trypsin to digest connective tissue to separate the neurons. After incubation, trypsin was removed using a pipette. The cells were rinsed with 2 ml of Neurobasal media 2-3 times by adding media, allowing the DRGs to settle to the bottom of the tube before removing the media, and adding another 2 ml of media. After the final rinse, the volume was brought up to 1 ml and the dissociated neurons were triturated with a medium-sized, then a small-sized, fire-polished Louis Pasteur pipette until the cell solution appeared cloudy and no individual DRGs were present in the media. A small amount of the solution was transferred to a hemocytometer and the single cells were counted. The cell solution was diluted so that 10-15×10^4 cells were added to an Alconox® treated, 0.1 mg/ml collagen coated, 25 mm diameter round glass coverslip in a 35 mm dish with 2 ml of Neurobasal media. The DRGs were incubated in 5% CO2 at 37° C. for 2-3 days before experimentation. Approximately 1 mL of media was replaced with new media every other day until experiments began.
Experiments began 2-3 days after neurons were plated. A dish of neurons was washed with 1×HBSS then 1×HBSS+1 mg/ml bovine serum albumin (BSA) before the cells were bathed in 4 μM Fura-2AM in 1×HBSS+BSA for incubation for 45 min at 37° C. in 5% CO2. The cells were washed 4× with 1×HBSS and incubated for another 20-60 min in 1×HBSS. A coverslip containing the neurons was removed after the final wash and placed in an apparatus for calcium imaging.
All toxins including nicotine, boric acid, ionomycin, glutamate, and glycine were prepared in 1×HBSS according to their final concentrations (Table 3).
The coverslip containing the neurons was placed in a perfusion apparatus onto an Olympus IX70 microscope equipped with a 20× fluorescence objective, a Mercury lamp and filter sets that optimized the Fura-2 excitation ([…]) and emission wavelengths (510 nm). The cells were bathed continuously by perfusion of solutions at ˜4.7 mL/min. The cells were bathed with 1×HBSS during software setup and for resting Ca^2+ measurements before exposure to stimulating or toxic solutions. InCyt Im2™ software was used to measure the emission intensities and convert to Ca^2+ concentrations. Only designated areas of each neuron soma were chosen for measurements. Calibration curves were generated for conversion of light intensity emitted per excitation wavelength using standard Ca^2+ solutions in the free acid form of Fura-2 to convert emitted light intensity to Ca^2+ concentration. Each experiment began with 3 min wash with HBSS to establish resting intracellular Ca^2+ measurements. Depending on the toxin used, the neurons were then exposed to a flow of toxic/stimulating solution for 5-10 min. Each experiment ended with a 1 min. wash of HBSS to determine reversal or change of the stimulating/toxic solution. […]

DRG neurons [3] = experiment: Fluorescence spectroscopy of FM 4-64 labeled DRG neurons
Experimental: For spectroscopy experiments, DRG neurons were grown on 11×22 mm plastic coverslips that were treated with Alconox and coated with Type VII rat tail collagen, using the same methods that were mentioned previously. Cells were plated with ˜15×10^4 cells in each 35 mm tissue culture dish containing one plastic coverslip. The cells were incubated in 5% CO2 at 37° C. for 2 days before experiments began.
Before scanning the cell samples, the coverslip was mounted into a coverglass holder and was held inside a cuvette at a 45° angle from the light source and the photo detector. The coverglass holder was placed in a cuvette containing 1×HBSS to rinse the media from the cells prior to the experiments. For the spectroscopy experiments, the coverglass holder was placed in the cuvette that was filled with either 1×HBSS or stimulating solutions. The orientation of the coverglass in the cuvette was situated so that the cell surface was facing the light source and photodetector, both at 45° angles. For experiments using FM® 4-64, scan were conducted using a HORIBA Jobin Yvon FluoroLog®-3 spectrofluorometer with an excitation wavelength of 558 nm and an emission range was detected from 566 to 750 nm. The slit width for excitation and emission was 3 nm and data was collected every 0.2 sec, once for each wavelength. Fluorescence intensity was detected in counts per second (cps). The data was transferred into MS Excel and analyzed using Matlab.
In Matlab, the maximum intensity of each scan was found for the emission wavelength range of interest and the ratio of the maximum emission intensities was taken between non-labeled, non-stimulated cells and FM®-labeled cells before and after stimulation. This ratio was used to determine the difference in fluorescence, and therefore the amount of stained membranes present in the sample before and after stimulation with ionomycin.
To determine whether a change in fluorescence of FM®-labeled neurons could be measured, the cells were stained and stimulated using the same methods mentioned above. Four emission scans were performed: a control scan of the non-labeled neurons in HBSS, a scan of the FM®-labeled neurons in HBSS, a scan of the FM® labeled neurons in ionomycin 5 min after initial stimulation, and a scan of the post stimulated, FM®-labeled neurons in 1×HBSS wash. The cells were rinsed with warm 1×HBSS before each scan, and the cells were stimulated for a total of 10 min before rinsed with 1×HBSS for the fourth scan. The ratio of fluorescence intensities of non-labeled neurons to FM®-labeled neurons, FM®-labeled ionomycin-stimulated neurons, and FM®-labeled ionomycin-stimulated rinsed neurons in Table 5.

DRG neurons [4] = test system: DRG neurons; remark: listed apart in the source
[5] = FM-labeled neurons after 10 min ionomycin stimulation, rinsed in 1×HBSS
[6] = FM-labeled neurons, 5 min in ionomycin
[7] = 10 min, 50 mM boric acid, 500 μM glutamate or 100 μM nicotine

## C[C@H](CCC(=O)O)C[C@H](C)C[C@H](C)C(=O)/C=C(\O)[C@H](C)C[C@H](C)C/C=C/[C@@H](C)[C@@H](O)[C@@H](C)[C@@H](O)C[C@@H]1CC[C@@](C)([C@H]2CC[C@@](C)([C@@H](C)O)O2)O1 [ionomycin]
DRG neurons [1]; 100 μM ionomycin, up to 10 min
  cell morphology in phase images during stimulation: shrinkage of the cell soma
DRG neurons [1]; 100 μM ionomycin, within the first 25 sec of stimulation
  migration of FM 4-64 dye in stained neurons: migrated from the membranes of the axons into the soma
[2]; ~100 μM ionomycin, highest time points averaged, n=228
  mean intracellular Ca2+ concentration during stimulation: 988 nM
[2]; ~100 μM ionomycin, positive control
  change of intracellular Ca2+ compared to resting: large and irreversible
DRG neurons [3]; [5]
  Fluorescence Intensity at 667 nm: 2238 cps
  Fluorescence Intensity at Peak Emission Wavelength: 2362 cps
  Peak Emission Wavelength: 676 nm
DRG neurons [3]; [6]
  Fluorescence Intensity at 667 nm: 3303 cps
  Fluorescence Intensity at Peak Emission Wavelength: 3719 cps
  Peak Emission Wavelength: 684 nm
DRG neurons [3]; FM-labeled neurons, 5 min in ionomycin vs non-labeled neurons
  Ratio of Fluorescence Intensities at 667 nm: 2.05
DRG neurons [3]; after 10 min ionomycin stimulation, rinsed in 1×HBSS vs non-labeled neurons
  Ratio of Fluorescence Intensities at 667 nm: 1.39

## OB(O)O [boric acid]
DRG neurons [4]
  axon morphology after stimulation: swollen axons
  differences in membrane structure before vs after treatment: very little differences to no differences
  migration of FM 4-64 dye in stained neurons: no migration of FM® 4-64 throughout the cells
[2]
  change of intracellular Ca2+ compared to resting: slight, but significant, decrease
  mean intracellular Ca2+ concentration during stimulation: 58 nM

## CN1CCCC1c1cccnc1 (stereo not shown) [nicotine]
DRG neurons [4]
  axon morphology after stimulation: swollen axons
  migration of FM 4-64 dye in stained neurons: no migration of FM® 4-64 throughout the cells
[2]
  change of intracellular Ca2+ compared to resting: only a few cells experiencing an increase in intracellular Ca^2+

## CCN(CC)c1ccc(/C=C/C=C/C=C/c2cc[n+](CCC[N+](CC)(CC)CC)cc2)cc1.[Br-].[Br-] [FM® 4-64]
DRG neurons [1]; 30 μM FM 4-64 in 1×HBSS
  staining of DRG neuron membranes: complete staining of the cell membranes around the soma and axons

## N[C@@H](CCC(=O)O)C(=O)O [glutamate]
DRG neurons [4]; [7]
  axon morphology after stimulation: swollen axons
  migration of FM 4-64 dye in stained neurons: no migration of FM® 4-64 throughout the cells
[2]; 100 μM glutamate
  percent of cells that responded with an increase of intracellular Ca2+: 21%
  percent of cells without obvious increase of intracellular Ca2+ (non-responding): 79%
[2]; 100 μM glutamate, n=27, resting 68.7 nM
  average intracellular Ca2+ concentration, responding cells: 301 nM
[2]; 100 μM glutamate, n=100, resting 67 nM
  average intracellular Ca2+ concentration, non-responding cells: 71 nM
[2]; 500 μM glutamate
  percent of cells that responded with an increase of intracellular Ca2+: 34%
  percent of cells without obvious increase of intracellular Ca2+ (non-responding): 66%
[2]; 500 μM glutamate, n=75, resting 82
  average intracellular Ca2+ concentration, responding cells: 352 nM
[2]; 500 μM glutamate, n=146, resting 84 nM
  average intracellular Ca2+ concentration, non-responding cells: 88 nM
[2]; 1 mM glutamate
  percent of cells that responded with an increase of intracellular Ca2+: 15%
  percent of cells without obvious increase of intracellular Ca2+ (non-responding): 85%
[2]; 1 mM glutamate, n=38, resting 79 nM
  average intracellular Ca2+ concentration, non-responding cells: 87 nM

## [Cl-].[K+] [KCl, potassium chloride]
DRG neurons [4]; 50 mM KCl, 10 min after addition
  migration of FM 4-64 dye in stained neurons: some migration of FM® dye throughout the DRG neurons
DRG neurons [4]; 50 mM KCl, 10 min of stimulation
  cell morphology in phase images during stimulation: some swelling in small parts of axons
[2]; 50 mM KCl, n=104
  mean intracellular Ca2+ concentration during stimulation: 511 nM
